Laboratory results taken from patent US8969524B2, “FVIII peptides for immune tolerance induction and immunodiagnostics” (Baxter International Inc., priority 2010, dated 2015).

System: FVIII-specific T cell hybridomas (peptides presented by HLA-DRB1*1501)
Assay: Peptide specificity of FVIII-specific T cell hybridomas (IL-2 release)
Assay type: cell-based, mouse
Settings: during Factor VIII replacement therapy or connected with acquired hemophilia
From the text: To better mimic the human MHC class II molecule for identifying FVIII peptides, a mouse model was developed for hemophilia A with a chimeric MHC class II molecule carrying a human HLA-DRB1*1501 specific binding site. This mouse was backcrossed to a mouse carrying a complete knock out of all murine MHC class II genes (Reipert et al., J. Thromb. Haemost. 7 Suppl. 1:92-97 (2009)). In this new transgenic mouse model, all CD4^+ T cell responses are driven by the human MHC class II molecule. This mouse model was used to identify FVIII peptides presented by HLA-DRB1*1501 that drive anti-FVIII immune responses in these mice.
Hemophilic HLA-DRB15 E17 mice: HLA-DRB1*1501^+/− E17^−/− mice as described in Reipert et al., J. Thromb. Haemost. 7 Suppl. 1:92-97 (2009). Mice were all male and aged 8 to 12 weeks at the beginning of the experiment.
Immunization with human recombinant FVIII: HLA-DRB1*1501^+/− E17^−/− mice received between 4 and 8 intravenous or subcutaneous doses of 0.2 μg or 1 μg human rFVIII at weekly intervals. rFVIII was diluted in the original formulation buffer or Dulbecco phosphate buffered saline containing calcium and magnesium (DPBS; Sigma Aldrich, St. Louis, Mo., USA).
Cell preparation: Spleens were obtained 3 to 7 days after the last immunization with rFVIII. Spleen cells were minced and passed through a 70 μm cell strainer (Becton Dickinson, Franklin Lakes, N.J.). Single cells were collected in culture medium: RPMI 1640 medium (Gibco, Invitrogen, Life Technologies, Carlsbad, Calif.) supplemented with 10% preselected fetal calf serum (FCS; Hyclone, Logan, Utah), 2 mM L-glutamine, 100 U/mL penicillin/streptomycin (both from Gibco), and 5×10^−5 M mercaptoethanol (Sigma-Aldrich). Erythrocytes were lysed using hypotonic buffer (pH 7.2) composed of 0.15 M ammonium chloride, 10 mM potassium bicarbonate (both from Merck, Darmstadt, Germany) and 0.1 mM ethylene-diaminetetraacetic acid (Sigma-Aldrich). Cells were washed and counted using a Coulter Counter Z1. […]

Row | Sequence | involvement in the immune response mounted against FVIII protein
1 | AWPKMHTVNGYVNRSLPGLIG (listed as Homo sapiens) [FVIII^246-266] | involved in the immune response
2 | QANRSPLPIAKVSSFPSIRPIYLT (listed as Homo sapiens) [FVIII^1401-1424] | involved in the immune response
3 | TVVITLKNMASHPVSLHAVGV (listed as Homo sapiens) [FVIII^102-122] | involved in the immune response
